Measurements: ChEMBL document CHEMBL1149037, “Vanicosides A and B, protein kinase C inhibitors from Polygonum pensylvanicum” (J Nat Prod, 1994)
Converted amounts (≈) assume the structure as drawn. The source made the active and inactive calls. The calls are words filed in the database; no cut-off is given here.

How the values were obtained:
[1] = Inhibition of PKC
MCF = test: Cytotoxicity against human MCF cells; format: functional, cell-based

SMILES | IC50 [1] [µg/mL] | Activity (MCF)
COc1cc(/C=C/C(=O)OC[C@H]2O[C@@H](O[C@]3(COC(=O)/C=C/c4ccc(OC(C)=O)cc4)O[C@H](COC(=O)/C=C/c4ccc(OC(C)=O)cc4)[C@@H](OC(C)=O)[C@@H]3OC(=O)/C=C/c3ccc(OC(C)=O)cc3)[C@H](OC(C)=O)[C@@H](OC(C)=O)[C@@H]2OC(C)=O)ccc1OC(C)=O | > 50 | –
COc1cc(/C=C/C(=O)OC[C@H]2O[C@@H](O[C@]3(COC(=O)/C=C/c4ccc(O)cc4)O[C@H](COC(=O)/C=C/c4ccc(O)cc4)[C@@H](O)[C@@H]3OC(=O)/C=C/c3ccc(O)cc3)[C@H](OC(C)=O)[C@@H](O)[C@@H]2O)ccc1O [VANICOSIDE A] | 44 (≈ 44 µM) | Active
COc1cc(/C=C/C(=O)OC[C@H]2O[C@H](O[C@]3(COC(=O)/C=C/c4ccc(O)cc4)O[C@H](COC(=O)/C=C/c4ccc(O)cc4)[C@@H](O)[C@@H]3OC(=O)/C=C/c3ccc(O)cc3)[C@H](O)[C@@H](O)[C@@H]2O)ccc1O [VANICOSIDE B] | 31 (≈ 32.4 µM) | Active
